Results reported in patent US5747466A, “3-deoxy-3-descladinose derivatives of erythromycins A and B” (Abbott Laboratories, priority 1996, dated 1998).
Read-outs that look alike come from different tables or passages of the source.

Columns and labels:
Test in all cases: In vitro antibacterial activity (MIC), agar dilution
[1] = tested on: STAPHYLOCOCCUS AUREUS CMX 642A; type: cell-based; conditions: S. aureus CMX 642A; BHI agar, 35-37 °C, 20-24 h
[2] = tested on: PSEUDOMONAS AERUGINOSA 5007; type: cell-based; conditions: P. aeruginosa 5007; BHI agar, 35-37 °C, 20-24 h
[3] = tested on: PROVIDENCIA STUARTII CMX 640; type: cell-based
[4] = tested on: NOCARDIA ARSTEROIDES ATCC 9970; type: cell-based; conditions: Nocardia ATCC 9970; BHI agar, 35-37 °C, 20-24 h
[5] = tested on: PSEUDOMONAS AERUGINOSA BMH10; type: cell-based; conditions: P. aeruginosa BMH10; BHI agar, 35-37 °C, 20-24 h
[6] = tested on: ESCHERICHIA COLI SS; type: cell-based; conditions: E. coli SS; BHI agar, 35-37 °C, 20-24 h
[7] = tested on: STAPHYLOCOCCUS AUREUS A5177; type: cell-based; conditions: S. aureus A5177; BHI agar, 35-37 °C, 20-24 h
[8] = tested on: MYCOBACTERIUM SMEGMATIS ATCC 114; type: cell-based; conditions: M. smegmatis ATCC 114; BHI agar, 35-37 °C, 20-24 h
[9] = tested on: STAPHYLOCOCCUS AUREUS 1775; type: cell-based; conditions: S. aureus 1775; BHI agar, 35-37 °C, 20-24 h
[10] = tested on: STAPHYLOCOCCUS AUREUS ATCC 6538P; type: cell-based; conditions: S. aureus ATCC 6538P; BHI agar, 35-37 °C, 20-24 h
[11] = tested on: ENTEROBACTER AEROGENES ATCC 13048; type: cell-based; conditions: E. aerogenes ATCC 13048; BHI agar, 35-37 °C, 20-24 h
[12] = tested on: CANDIDA ALBICANS CCH 442; type: cell-based; conditions: C. albicans CCH 442; BHI agar, 35-37 °C, 20-24 h
[13] = tested on: STREPTOCOCCUS PYOGENES PIU 2548; type: cell-based; conditions: S. pyogenes PIU 2548; BHI agar, 35-37 °C, 20-24 h
[14] = tested on: ESCHERICHIA COLI JUHL; type: cell-based
[15] = tested on: PSEUDOMONAS AERUGINOSA DPHD-5263; type: cell-based; conditions: P. aeruginosa DPHD-5263; BHI agar, 35-37 °C, 20-24 h
[16] = tested on: PSEUDOMONAS CEPACIA 296I; type: cell-based; conditions: P. cepacia 296I; BHI agar, 35-37 °C, 20-24 h
[17] = tested on: STREPTOCOCCUS PYOGENES 930; type: cell-based; conditions: S. pyogenes 930; BHI agar, 35-37 °C, 20-24 h
[18] = tested on: STAPHYLOCOCCUS AUREUS A-5278; type: cell-based; conditions: S. aureus A-5278; BHI agar, 35-37 °C, 20-24 h
[19] = tested on: PSEUDOMONAS AERUGINOSA K799/WT; type: cell-based; conditions: P. aeruginosa K799/WT; BHI agar, 35-37 °C, 20-24 h
[20] = tested on: STR[…] 508; type: cell-based, Streptococcus agalactiae; conditions: S. agalactiae CMX 508; BHI agar, 35-37 °C, 20-24 h
Description: (§1) Representative compounds of the present invention were assayed in vitro for antibacterial activity as follows: Twelve petri dishes containing successive aqueous dilutions of the test compound mixed with 10 mL of sterilized Brain Heart Infusion (BHI) agar (Difco 0418-01-5) were prepared. Each plate was inoculated with 1:100 (or 1:10 for slow-growing strains, such as Micrococcus and Streptococcus) dilutions of up to 32 different microorganisms, using a Steers replicator block. The inoculated plates were incubated at 35°-37° C. for 20 to 24 hours. In addition, a control plate, using BHI agar containing no test compound, was prepared and incubated at the beginning and end of each test.
(§2) An additional plate containing a compound having known susceptibility patterns for the organisms being tested and belonging to the same antibiotic class as the test compound was also prepared and incubated as a further control, as well as to provide test-to-test comparability. Erythromycin A was used for this purpose.
(§3) After incubation, each plate was examined. The minimum inhibitory concentration (MIC) was defined as the lowest concentration of drug yielding no growth, a slight haze, or sparsely isolated colonies on the inoculum spot as compared to the growth control.

[21] = tested on: STAPHYLOCOCCUS EPIDERMIDIS 3519; type: cell-based
[22] = tested on: M[…] ATCC 4698; type: cell-based, Micrococcus luteus; conditions: M. luteus ATCC 4698; BHI agar, 35-37 °C, 20-24 h
Description: as §1, §2, §3

[23] = tested on: M[…] ATCC 9341; type: cell-based, Micrococcus luteus; conditions: M. luteus ATCC 9341; BHI agar, 35-37 °C, 20-24 h
Description: as §1, §2, §3

[24] = tested on: STREPTOCOCCUS BOVIS A-5169; type: cell-based; conditions: S. bovis A-5169; BHI agar, 35-37 °C, 20-24 h
[25] = tested on: ESCHERICHIA COLI DC-2; type: cell-based; conditions: E. coli DC-2; BHI agar, 35-37 °C, 20-24 h
[26] = tested on: ACINETOBACTER CALCOACETICUS CMX 669; type: cell-based; conditions: A. calcoaceticus CMX 669; BHI agar, 35-37 °C, 20-24 h
[27] = P. stuartii CMX 640, BHI agar, 35-37 °C, 20-24 h
[28] = S. epidermidis 3519, BHI agar, 35-37 °C, 20-24 h

For `CC[C@H]1OC(=O)[C@H](C)[C@@H](O[C@H]2C[C@@](C)(OC)[C@@H](O)[C@H](C)O2)[C@H](C)[C@@H](O[C@@H]2O[C@H](C)C[C@H](N(C)C)[C@H]2O)[C@](C)(O)C[C@@H](C)C(=O)[C@H](C)[C@@H](O)[C@]1(C)O` [Ery A, Erythromycin A, reference compound], the “minimum inhibitory concentration (MIC)” value [1] was 0.2, the “minimum inhibitory concentration (MIC)” value [2] was over 100 and the “minimum inhibitory concentration (MIC)” value [3] was over 100. For the same compound, the “minimum inhibitory concentration (MIC)” value [4] was 0.05, the “minimum inhibitory concentration (MIC)” value [5] was 100 and the “minimum inhibitory concentration (MIC)” value [6] was 0.2. The “minimum inhibitory concentration (MIC)” value [7] was 1.56, the “minimum inhibitory concentration (MIC)” value [8] was 25 and the “minimum inhibitory concentration (MIC)” value [9] was over 100. For the same compound, the “minimum inhibitory concentration (MIC)” value [10] was 0.1, the “minimum inhibitory concentration (MIC)” value [11] was over 100 and the “minimum inhibitory concentration (MIC)” value [12] was over 100. The “minimum inhibitory concentration (MIC)” value [13] was 6.2, the “minimum inhibitory concentration (MIC)” value [14] was 50 and the “minimum inhibitory concentration (MIC)” value [15] was 100. The “minimum inhibitory concentration (MIC)” value [16] was over 100, the “minimum inhibitory concentration (MIC)” value [17] was over 100 and the “minimum inhibitory concentration (MIC)” value [18] was over 100. The “minimum inhibitory concentration (MIC)” value [19] was 100, the “minimum inhibitory concentration (MIC)” value [20] was 0.02 and the “minimum inhibitory concentration (MIC)” value [21] was 0.1. For the same compound, the “minimum inhibitory concentration (MIC)” value [22] was 0.2, the “minimum inhibitory concentration (MIC)” value [23] was 0.02 and the “minimum inhibitory concentration (MIC)” value [24] was 0.02. The “minimum inhibitory concentration (MIC)” value [25] was 100.
In the case of `CC[C@H]1OC(=O)[C@H](C)C[C@H](C)[C@@H](O[C@@H]2O[C@H](C)C[C@H](N(C)C)[C@H]2O)[C@](C)(OC)C[C@@H](C)C(=O)[C@H](C)[C@H]2N(CCCCc3ccccc3)C(=O)O[C@]12C` [Ex. 4], the “minimum inhibitory concentration (MIC)” value [1] is reported as 1.56, the “minimum inhibitory concentration (MIC)” value [2] is reported as over 100 and the “minimum inhibitory concentration (MIC)” value [3, 27] is reported as over 100. For the same compound, the “minimum inhibitory concentration (MIC)” value [4] was 3.1, the “minimum inhibitory concentration (MIC)” value [5] was over 100 and the “minimum inhibitory concentration (MIC)” value [6] was 1.56. For the same compound, the “minimum inhibitory concentration (MIC)” value [7] was 1.56, the “minimum inhibitory concentration (MIC)” value [8] was 1.56 and the “minimum inhibitory concentration (MIC)” value [9] was 50. The “minimum inhibitory concentration (MIC)” value [10] was 1.56, the “minimum inhibitory concentration (MIC)” value [11] was over 100 and the “minimum inhibitory concentration (MIC)” value [12] was 100. For the same compound, the “minimum inhibitory concentration (MIC)” value [13] was 0.2, the “minimum inhibitory concentration (MIC)” value ([14]; E. coli JUHL, BHI agar, 35-37 °C, 20-24 h) was over 100 and the “minimum inhibitory concentration (MIC)” value [15] was 100. For the same compound, the “minimum inhibitory concentration (MIC)” value [26] was 100, the “minimum inhibitory concentration (MIC)” value [17] was 6.2 and the “minimum inhibitory concentration (MIC)” value [18] was 50. For the same compound, the “minimum inhibitory concentration (MIC)” value [19] was 100, the “minimum inhibitory concentration (MIC)” value [20] was 0.1 and the “minimum inhibitory concentration (MIC)” value [21, 28] was 1.56. The “minimum inhibitory concentration (MIC)” value [22] was 1.56, the “minimum inhibitory concentration (MIC)” value [23] was 1.56 and the “minimum inhibitory concentration (MIC)” value [24] was 0.02. For the same compound, the “minimum inhibitory concentration (MIC)” value [25] was 50.
For `CC[C@H]1OC(=O)[C@H](C)C[C@H](C)[C@@H](O[C@@H]2O[C@H](C)C[C@H](N(C)C)[C@H]2O)[C@](C)(OC)C[C@@H](C)C(=O)[C@H](C)[C@H]2N(CCc3ccc(Oc4ccccc4)cc3)C(=O)O[C@]12C` [Ex. 5], the “minimum inhibitory concentration (MIC)” value [1] was 12.5, the “minimum inhibitory concentration (MIC)” value [2] was over 100 and the “minimum inhibitory concentration (MIC)” value [3, 27] was over 100. For the same compound, the “minimum inhibitory concentration (MIC)” value [4] was 3.1, the “minimum inhibitory concentration (MIC)” value [5] was over 100 and the “minimum inhibitory concentration (MIC)” value [7] was 6.2. The “minimum inhibitory concentration (MIC)” value [8] was 3.1, the “minimum inhibitory concentration (MIC)” value [9] was 25 and the “minimum inhibitory concentration (MIC)” value [10] was 12.5. The “minimum inhibitory concentration (MIC)” value [11] was over 100, the “minimum inhibitory concentration (MIC)” value [12] was 100 and the “minimum inhibitory concentration (MIC)” value [13] was 3.1. The “minimum inhibitory concentration (MIC)” value [15] was over 100, the “minimum inhibitory concentration (MIC)” value [26] was over 100 and the “minimum inhibitory concentration (MIC)” value [16] was 100. For the same compound, the “minimum inhibitory concentration (MIC)” value [17] was 6.2, the “minimum inhibitory concentration (MIC)” value [18] was 25 and the “minimum inhibitory concentration (MIC)” value [19] was over 100. The “minimum inhibitory concentration (MIC)” value [20] was 1.56, the “minimum inhibitory concentration (MIC)” value [21, 28] was 12.5 and the “minimum inhibitory concentration (MIC)” value [22] was 1.56. The “minimum inhibitory concentration (MIC)” value [23] was 3.1, the “minimum inhibitory concentration (MIC)” value [24] was 1.56 and the “minimum inhibitory concentration (MIC)” value [25] was 12.5.
For `CC[C@H]1OC(=O)[C@H](C)C[C@H](C)[C@@H](O[C@@H]2O[C@H](C)C[C@H](N(C)C)[C@H]2O)[C@](C)(OC)C[C@@H](C)C(=NOC)[C@H](C)[C@@H](O)[C@]1(C)O` [Ex. 6], the “minimum inhibitory concentration (MIC)” value [1] was 6.2, the “minimum inhibitory concentration (MIC)” value [2] was over 100 and the “minimum inhibitory concentration (MIC)” value [3, 27] was 100. For the same compound, the “minimum inhibitory concentration (MIC)” value [4] was 0.78, the “minimum inhibitory concentration (MIC)” value [5] was over 100 and the “minimum inhibitory concentration (MIC)” value [7] was 6.2. The “minimum inhibitory concentration (MIC)” value [8] was 3.1, the “minimum inhibitory concentration (MIC)” value [9] was over 100 and the “minimum inhibitory concentration (MIC)” value [10] was 6.2. For the same compound, the “minimum inhibitory concentration (MIC)” value [11] was over 100, the “minimum inhibitory concentration (MIC)” value [12] was over 100 and the “minimum inhibitory concentration (MIC)” value [13] was 0.78. The “minimum inhibitory concentration (MIC)” value [15] was 50, the “minimum inhibitory concentration (MIC)” value [26] was over 100 and the “minimum inhibitory concentration (MIC)” value [16] was 12.5. The “minimum inhibitory concentration (MIC)” value [17] was over 100, the “minimum inhibitory concentration (MIC)” value [18] was over 100 and the “minimum inhibitory concentration (MIC)” value [19] was over 100. The “minimum inhibitory concentration (MIC)” value [20] was 0.39, the “minimum inhibitory concentration (MIC)” value [21, 28] was 12.5 and the “minimum inhibitory concentration (MIC)” value [22] was 0.39. For the same compound, the “minimum inhibitory concentration (MIC)” value [23] was 0.39, the “minimum inhibitory concentration (MIC)” value [24] was 0.39 and the “minimum inhibitory concentration (MIC)” value [25] was 0.78.
